These results are taken from BindingDB's records for doi:10.1016/s0960-894x(03)00105-7 (University of California Irvine, 2003).

Each structure is given as a SMILES string.

The target of this assay is Serine/threonine-protein phosphatase 2A catalytic subunit alpha. Kind of assay: Inhibition of protein phosphatase 2A (PP2A) was determined by standard phosphorylase a inhibition assay.
`CO[C@@H]([C@H](O)CC(=O)[C@@H](C)[C@@H](O)CC[C@@H](C)[C@@H]1O[C@]2(CC[C@@H](C)[C@H](CC[C@H](C)C(C)=O)O2)CC[C@@H]1C)[C@H](OC(=O)C[C@](C)(O)C(=O)O)C(C)C` [(S)-2-Hydroxy-2-methyl-succinic acid 4-{(1R,2S,3R,6S,7S,10R)-10-[(2S,3S,6R,8S,9R)-3,9-dimethyl-8-((S)-3-methyl-4-oxo-pentyl)-1,7-dioxa-spiro[5.5]undec-2-yl]-3,7-dihydroxy-1-isopropyl-2-methoxy-6-methyl-5-oxo-undecyl} ester] had an IC50 of 29 µM. With `CO[C@@H]([C@H](O)CC(=O)[C@@H](C)[C@@H](O)CC[C@@H](C)[C@@H]1O[C@]2(CC[C@@H](C)[C@H](CC[C@H](C)C(C)=O)O2)CC[C@@H]1C)[C@H](OC(=O)C[C@@](C)(O)C(=O)O)C(C)C` [(R)-2-Hydroxy-2-methyl-succinic acid 4-{(1R,2S,3R,6S,7S,10R)-10-[(2S,3S,6R,8S,9R)-3,9-dimethyl-8-((S)-3-methyl-4-oxo-pentyl)-1,7-dioxa-spiro[5.5]undec-2-yl]-3,7-dihydroxy-1-isopropyl-2-methoxy-6-methyl-5-oxo-undecyl} ester] the figure was 100 µM; with `CO[C@@H]([C@H](O)CC(=O)[C@@H](C)[C@@H](O)CC[C@@H](C)[C@@H]1O[C@]2(CC[C@@H](C)[C@H](CC[C@H](C)C(C)=O)O2)CC[C@@H]1C)[C@H](OC(=O)CCCP(=O)(O)O)C(C)C` [4-Phosphono-butyric acid (1R,2S,3R,6S,7S,10R)-10-[(2S,3S,6R,8S,9R)-3,9-dimethyl-8-((S)-3-methyl-4-oxo-pentyl)-1,7-dioxa-spiro[5.5]undec-2-yl]-3,7-dihydroxy-1-isopropyl-2-methoxy-6-methyl-5-oxo-undecyl ester], 300 µM. Next, `CO[C@@H]([C@H](O)CC(=O)[C@@H](C)[C@@H](O)CC[C@@H](C)[C@@H]1O[C@]2(CC[C@@H](C)[C@H](CC[C@H](C)C(C)=O)O2)CC[C@@H]1C)[C@H](OC(=O)C[C@@H](O)/C=C(\C)C(=O)O)C(C)C` [(E)-(R)-4-Hydroxy-2-methyl-hex-2-enedioic acid 6-{(1R,2S,3R,6S,7S,10R)-10-[(2S,3S,6R,8S,9R)-3,9-dimethyl-8-((S)-3-methyl-4-oxo-pentyl)-1,7-dioxa-spiro[5.5]undec-2-yl]-3,7-dihydroxy-1-isopropyl-2-methoxy-6-methyl-5-oxo-undecyl} ester]: 4 µM.
